# Laboratory results published in paper PMC8740820 (Toxicology and applied pharmacology, 2014).
# Entries after “also recorded” stand apart in the source; their conditions may differ.
# Legend:
# zfERα [1] = target: T1, zfERα (Danio rerio, UniProt P57717); assay: HELN-zfERα transcriptional inhibition; assay type: cell-based, zebrafish
# T1 sequence (P57717 1-569): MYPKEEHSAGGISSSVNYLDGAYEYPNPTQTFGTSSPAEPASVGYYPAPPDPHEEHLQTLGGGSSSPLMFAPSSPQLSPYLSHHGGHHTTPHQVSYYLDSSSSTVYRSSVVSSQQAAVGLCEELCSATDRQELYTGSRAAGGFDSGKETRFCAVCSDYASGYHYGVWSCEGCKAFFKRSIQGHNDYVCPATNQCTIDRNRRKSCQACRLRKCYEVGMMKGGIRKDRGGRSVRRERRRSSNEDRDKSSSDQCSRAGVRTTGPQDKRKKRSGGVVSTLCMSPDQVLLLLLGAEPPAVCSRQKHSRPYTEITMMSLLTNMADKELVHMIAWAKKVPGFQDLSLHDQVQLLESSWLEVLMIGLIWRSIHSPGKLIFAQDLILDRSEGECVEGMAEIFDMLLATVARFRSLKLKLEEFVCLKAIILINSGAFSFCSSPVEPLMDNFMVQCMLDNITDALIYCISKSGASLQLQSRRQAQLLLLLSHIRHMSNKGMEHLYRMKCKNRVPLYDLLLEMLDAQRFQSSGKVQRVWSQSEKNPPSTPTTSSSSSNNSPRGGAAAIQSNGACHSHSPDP
# zfERβ1 [2] = target: T2, zfERβ1 (Danio rerio, UniProt Q5PR29); assay type: cell-based, zebrafish; conditions: HELN-zfERβ1
# zfERβ2 [3] = target: T3, zfERβ2 (Danio rerio, UniProt Q7ZU32); assay: HELN-zfERβ2 transcriptional inhibition; assay type: cell-based, zebrafish
# zfERβ1 [4] = target: T2, zfERβ1; conditions: HELN-zfERβ1
# zfERβ2 [5] = target: T3, zfERβ2; conditions: HELN-zfERβ2
# hERβ = hERβ (Homo sapiens, UniProt Q92731); conditions: ref Escande et al., 2006; cited from earlier work
# Sequence of hERβ (Q92731 whole entry): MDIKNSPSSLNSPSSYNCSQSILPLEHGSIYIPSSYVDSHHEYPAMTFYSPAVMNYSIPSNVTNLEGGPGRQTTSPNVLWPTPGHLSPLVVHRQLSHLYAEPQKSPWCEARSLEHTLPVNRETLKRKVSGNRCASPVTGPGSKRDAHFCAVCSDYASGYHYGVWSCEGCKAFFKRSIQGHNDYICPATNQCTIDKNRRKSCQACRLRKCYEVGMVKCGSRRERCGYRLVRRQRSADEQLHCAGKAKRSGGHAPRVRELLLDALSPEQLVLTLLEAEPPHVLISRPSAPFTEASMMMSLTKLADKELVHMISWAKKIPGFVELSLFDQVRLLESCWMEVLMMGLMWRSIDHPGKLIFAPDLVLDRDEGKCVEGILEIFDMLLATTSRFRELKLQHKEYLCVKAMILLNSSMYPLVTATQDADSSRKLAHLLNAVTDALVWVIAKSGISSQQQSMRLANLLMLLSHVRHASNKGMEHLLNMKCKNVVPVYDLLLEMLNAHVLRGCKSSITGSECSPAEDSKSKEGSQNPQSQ
# 5×ERE:GFP reporter = conditions: 5×ERE:GFP zebrafish larvae; ref Gorelik et al., 2014; cited from earlier work
# zfERα [6] = target: T1, zfERα; assay: HELN-zfERα luciferase transactivation assay; conditions: HELN-zfERα
compound,measurement,setting,value
"CCCc1c(-c2ccc(O)cc2)nn(-c2ccc(O)cc2)c1-c1ccc(O)cc1 [PPT, 4,4′,4″-(4-Propyl-[^1H]-pyrazole-1,3,5-triyl)trisphenol]",antagonistic activity on zfERα (in words),zfERα [1],full antagonistic activity
same,antagonistic activity on zfERβ1 (in words),zfERβ1 [2],partially antagonize
same,antagonistic activity on zfERβ2 (in words),zfERβ2 [3],partially antagonize
same,agonistic activity on zfERβ1 (in words),zfERβ1 [4],partially activated; also recorded: slightly activated
same,agonistic activity on zfERβ2 (in words),zfERβ2 [5],partially activated; also recorded: slightly activated
same,agonistic activity on hERβ (in words),hERβ,unable to activate hERβ
same,tissue of GFP expression,5×ERE:GFP reporter,GFP labeling of only the larval liver
same,agonistic activity on zfERα (in words),zfERα [6],did not activate zfERα at all; also recorded: devoid of agonistic activity
